# Laboratory results taken from patent publication US6423752B1, “Indane dimer compounds with smooth muscle relaxing and/or mast cell stabilizing and/or anti-inflammatory activity” (Venantius Limited, priority 1995, dated 2002).
# Structures can show the parent of a compound that is named as a salt. Where two headings read alike, the source gives them in different places.
# Assays:
# [1] = test system: mast cells; assay: Histamine release assay (compound 48/80 stimulated mast cells); format: cell-based, Wistar rats; details: 2 × 10^−5 M, rat peritoneal mast cells; for inhibition at 20 µM: Rattus norvegicus, Mast cell, read-out: Percentage Inhibition of Histamine Release
# Method: (§1) The compounds were assessed for their ability to stabilize mast cell membranes in vitro. Mast cells treated with the compounds and un-treated mast cells were stimulated to release histamine. A reduction in histamine release by the treated cells compared to the untreated cells indicates stabilisation of the membrane. The compounds were assessed for their ability to relax smooth muscle in vitro. Intestinal smooth muscle was stimulated to contract, using calcium chloride and subsequently treated with the compounds, relaxation of the contraction was measured for each compound. The effects of the compounds were also studied on relaxation of guinea-pig tracheal muscle. In the rat paw oedema test, the drugs were administered systemically prior to inducing inflammation by the injection of carageenan below the plantar aponeurosis of the hind paw. The volume of the paw was determined both before and after treatment as an index of oedema. In the mouse ear oedema test, the drugs were administered topically prior to inducing inflammation by the topical application of arachidonic acid. The width of the ear was determined both before and after treatment as an index of oedema.
# The buffered salt solution (BSS) was prepared in advance (NaCl 137 mM; KCl 2.7 mM; MgCl2 1.0 mM; CaCl2 0.5 mM, NaH2PO4 0.4 mM; Glucose 5.6 mM; HEPES 10 mM). This was dispensed into test tubes and heated to 37° C., each test tube contained 4.5 ml BSS. The solvent blank was supplemented with 0.5% (v/v) dimethyl sulphoxide (DMSO) or 0.5% (v/v) distilled water (dH2O). The two positive controls were supplemented with 0.5% (v/v) dH2O/2×10^−5M disodium cromoglycate (DSCG) and 0.5% (v/v) DMSO/2×10^−5M DSCG. The test compounds' incubation tubes contained 2×10^−5M test compound/0.5% (v/v) DMSO. The basal release, maximum release and total histamine content incubation tubes contained no additions.
# Female Wistar rats (200-300 g) were killed in an atmosphere of saturated CO2. Pre-warmed BSS (10 ml) was injected i.p. and the abdomen was massaged for 3 min. The BSS, with suspended mast cells and other cells, was aspirated following a mid-line incision. The aspirate was centrifuged for 5 min at 400 g and the supernatant removed. The cells were re-suspended in BSS, at 4° C., and centrifuged as before the cells were washed in this manner a total of three times. Following the final wash, the pelleted cells were stored at 4° C., for use as soon as possible.
# The cells were re-suspended in 7 ml BSS. From this, 0.5 ml aliquots were transferred to each of the incubation tubes. After 10 min at 37° C. with gentle agitation, Compound 48/80 was added to a final concentration of […], in order to stimulate histamine release. The cell stimulation was stopped after 2 min by the addition of 0.5 ml ice cold BSS, the incubation tubes were transferred to an ice bath. The cell suspensions were centrifuged for 5 min at 400 g. The “total histamine content” tube was placed at 100° C. for 2 min prior to centrifugation. The supernatants were retained for histamine assay.
# To 2 ml of supernatant from each tube was added 0.4 ml of 1M NaOH and 0.1 ml oPT (1% (w/v) in methanol). This was incubated at room temperature for 4 min. The reaction was stopped by the addition of 0.2 ml of 3M HCl. The supernatant from each incubation tube was assayed in duplicate and run simultaneously with a standard curve in the range 0-1000 ng/ml. The presence of the fluorescent product of the reaction was measured using a Shimazu RF-1501 spectrofluorophotometer set at λex=360 nm, λem=450 nm.
# Each drug was tested on at least five animals (n=5). The results were expressed as a percentage of maximum, compound 48/80 induced, histamine release in the solvent blank sample. Each drug was compared to DSCG on the same tissues. The basal histamine release in untreated cells was noted, expressed as a percentage of the total histamine content of the cells in suspension. […]
# [2] = test system: ileum; assay: Smooth muscle effects: CaCl2 induced contractions of ileum; parameters: species or system Guinea pigs; details: for inhibition at 0.03 µM / inhibition at 0.1 µM / inhibition at 0.3 µM / inhibition at 1 µM / inhibition at 3 µM / inhibition at 10 µM: Cavia porcellus, read-out: Percentage Inhibition of CaCl2 Induced Contractions
# Method: as §1
# (§2) Guinea pigs (350 g approx.), of either sex, were killed in an atmosphere of saturated CO2. The abdomen was opened by a mid-line incision and the small intestine was removed. The trachea was removed and sectioned between the cartilage rings, which were then split through.
# (§3) Segments of ileum (1-1.5 cm) were suspended in a high potassium, no calcium Krebs buffer (NaCl 160.44 mM); KCl 45 mM; MgCl2 0.54 mM; NaH2PO4 0.89 mM; NaH2CO3 24.9 mM; Glucose 11.1 mM). Tracheal sections were suspended in normal Krebs buffer (NaCl […]; KCl 4.7 mM; CaCl2 2.5 mM; MgCl2 0.54 mM; NaH2PO4 0.89 mM; NaHCO3 24.9 mM; Glucose 11.1 mM). The solutions were maintained at 37° C. by a jacketed organ bath and gassed with 95% O2 and 5% CO2. The tissues were anchored by thread to the bottom of the organ bath and suspended from force displacement transducers under a resting tension of 1 g approx. in the case of ileum and 4 g approx. in the case of trachea. Isotonic contractions were recorded using a MacLab/4e system in conjunction with the Chart 3.3.1 software package. Surplus tissue was stored at 4° C. in Krebs buffer, for a maximum of 48 hours.
# (§4) Four segments of tissue were suspended and observed concurrently. Contractions were initiated by the addition of 25 μl of 1M CaCl2 (a final concentration of 2.5 mM). The contractions stabilized with time, 10-15 min, and could be maintained for up to 45 min. from the addition of the CaCl2. The tracheal sections were allowed to develop spontaneous resting tension over a period of 30 mins.
# Stock solutions of drug were prepared at 10^−3M in 50% (v/v) DMSO. These were diluted to give; 10^−4M in 5% (v/v) DMSO and 10^−5M in 0.5% (v/v) DMSO. In cases of poor solubility the 10^−3M stock was made up in higher concentrations of DMSO. Solvent ‘blank’ solutions were prepared containing 50%, 5% and 0.5% (v/v) DMSO (or as appropriate). […] A second cumulative dose-response assay was carried out using DMSO ‘blank’ solutions only.
# (§5) Each drug was tested, in duplicate, on at least three different animals (n=3). The results were expressed as percentage inhibition of the CaCl2 induced contraction in the case of ideal tissue and percentage relaxation in the case of tracheal tissue, for each tissue, at each concentration of drug in DMSO. The effect of DMSO, for each tissue at each concentration, was subtracted from the effect of the drug in DMSO, to give the effect of the drug alone. A log dose vs. response curve was plotted for each drug using the mean and the standard error of the mean for the cumulated results.
# [3] = test system: trachea; assay: Smooth muscle effects: spontaneous tone of tracheal sections; parameters: species or system Guinea pigs; details: Cavia porcellus, guinea pig trachea, percentage relaxation
# Method: as §1, §2, §3, §4
# Stock solutions of drug were prepared at 10^−3M in 50% (v/v) DMSO. These were diluted to give; 10^−4M in 5% (v/v) DMSO and 10^−5M in 0.5% (v/v) DMSO. In cases of poor solubility the 10^−3M stock was made up in higher concentrations of DMSO. Solvent ‘blank’ solutions were prepared containing 50%, 5% and 0.5% (v/v) DMSO (or as appropriate). A cumulative dose-response assay was carried out in the range 5×10^−8M to 10^−5M. A second cumulative dose-response assay was carried out using DMSO ‘blank’ solutions only.
# as §5
# [4] = 3 × 10^−6 M, guinea pig ileum, DMSO effect subtracted
# [5] = 3 × 10^−7 M, guinea pig ileum, DMSO effect subtracted
# [6] = 3 × 10^−8 M, guinea pig ileum, DMSO effect subtracted
# [7] = 10^−5 M, guinea pig ileum, DMSO effect subtracted
# [8] = 10^−6 M, guinea pig ileum, DMSO effect subtracted
# [9] = 10^−7 M, guinea pig ileum, DMSO effect subtracted
structure (smiles),measurement,setting,value
"O=C1CC(NC2CCc3ccccc32)c2ccccc21 (centres unmarked) [Compound 5C8, 3-(N-1-indanylamino) -indan-1-one. Hydrochloride]",Percentage Inhibition of Histamine Release,[1]; hydrochloride,14.33%
"O=C1CC(N(Cc2ccccc2)C2CCc3ccccc32)c2ccccc21 (centres unmarked) [Compound 5C7, 3-(N-benzyl-N-1-indanylamino)-indan-1-one]",inhibition at 20 µM,[1],24.1%
same,inhibition at 0.03 µM,[2],0.16%
same,inhibition at 0.1 µM,[2],-0.44%
same,inhibition at 0.3 µM,[2],-0.36%
same,inhibition at 1 µM,[2],-1.72%
same,inhibition at 3 µM,[2],0%
same,inhibition at 10 µM,[2],2.06%
"Cc1ccc(S(=O)(=O)N(C2Cc3ccccc3C2)C2CC(=O)c3ccccc32)cc1 (centres unmarked) [Compound 6C10, N-2-Indanyl-N-3-indan-1-onyl-p-toluenesulfonamide]",inhibition at 20 µM,[1],51.1%
same,inhibition at 3 µM,[3]; 3 × 10^−6 M,-0.75%
same,inhibition at 10 µM,[3]; 10^−5 M,0.5%
"O=C1CC(N(Cc2ccccc2)C2Cc3ccccc3C2)c2ccccc21 (centres unmarked) [Compound 6C8, 3-(N-benzyl-N-2-indanylamino)-indan-1-one]",inhibition at 20 µM,[1],88.6%
same,inhibition at 0.03 µM,[2],1.97%
same,inhibition at 0.1 µM,[2],2.94%
same,inhibition at 0.3 µM,[2],3.26%
same,inhibition at 1 µM,[2],4.69%
same,inhibition at 3 µM,[2],11.3%
same,inhibition at 10 µM,[2],31.1%
"C=CCN(C1CCc2ccccc21)C1CC(=O)c2ccccc21 (centres unmarked) [Compound 5C11, 3-(N-prop-2-enyl-N-1-indanylamino)-indan-1-one hydrochloride]",Percentage Inhibition of Histamine Release,[1]; hydrochloride,90.27%
"C=CCN(C1Cc2ccccc2C1)C1CC(=O)c2ccccc21 (centres unmarked) [Compound 6C12, 3-(N-prop-2-enyl-N-2-indanylamino)-indan-1-one hydrochloride]",Percentage Inhibition of Histamine Release,[1]; hydrochloride,91.35%
"OC1CC(NC2CCc3ccccc32)c2ccccc21 (centres unmarked) [Compound 5C4, 3-(N-1-indanylamino)indan-1-ol]",inhibition at 20 µM,[1],5.68%
same,inhibition at 3 µM,[2]; [4],5.08%
same,inhibition at 0.3 µM,[2]; [5],-0.99%
same,inhibition at 0.03 µM,[2]; [6],-0.86%
same,inhibition at 10 µM,[2]; [7],19.1%
same,inhibition at 1 µM,[2]; [8],1.15%
same,inhibition at 0.1 µM,[2]; [9],-0.86%
"CN(C1CCc2ccccc21)C1CC(=O)c2ccccc21 (centres unmarked) [Compound 5C5, 3-(N-methyl-N-1-indanylamino)-indan-1-one]",inhibition at 20 µM,[1],58.7%
same,inhibition at 3 µM,[2]; [4],3.56%
same,inhibition at 0.3 µM,[2]; [5],0.43%
same,inhibition at 0.03 µM,[2]; [6],-0.26%
same,inhibition at 10 µM,[2]; [7],10.5%
same,inhibition at 1 µM,[2]; [8],1.56%
same,inhibition at 0.1 µM,[2]; [9],0.28%
"O=C1CC(NC2CCc3ccccc32)c2ccccc21 (centres unmarked) [Compound 5C3, 3-(N-1-indanylamino)-indan-1-one]",Percentage Inhibition of Histamine Release,[1],32.77%
same,inhibition at 3 µM,[2]; [4],15.1%
same,inhibition at 0.3 µM,[2]; [5],3.78%
same,inhibition at 0.03 µM,[2]; [6],0.53%
same,inhibition at 10 µM,[2]; [7],30%
same,inhibition at 1 µM,[2]; [8],7.21%
same,inhibition at 0.1 µM,[2]; [9],2.61%
"O=C1CC(NC2Cc3ccccc3C2)c2ccccc21 (centres unmarked) [Compound 6C9, 3-(N-2-indanylamino)indan-1-one. Hydrochloride]",Percentage Inhibition of Histamine Release,[1]; hydrochloride,43.60%
same,Percentage Inhibition of CaCl2 Induced Contractions,"[2]; 3 × 10^−6 M, guinea pig ileum, DMSO effect subtracted, Hydrochloride",−0.86%
same,Percentage Inhibition of CaCl2 Induced Contractions,"[2]; 3 × 10^−7 M, guinea pig ileum, DMSO effect subtracted, Hydrochloride",−1.76%
same,Percentage Inhibition of CaCl2 Induced Contractions,"[2]; 3 × 10^−8 M, guinea pig ileum, DMSO effect subtracted, Hydrochloride",0.31%
same,Percentage Inhibition of CaCl2 Induced Contractions,"[2]; 10^−5 M, guinea pig ileum, DMSO effect subtracted, Hydrochloride",1.58%
same,Percentage Inhibition of CaCl2 Induced Contractions,"[2]; 10^−6 M, guinea pig ileum, DMSO effect subtracted, Hydrochloride",−2.94%
same,Percentage Inhibition of CaCl2 Induced Contractions,"[2]; 10^−7 M, guinea pig ileum, DMSO effect subtracted, Hydrochloride",0.61%
C=CCN(C1CCc2ccccc21)C1CC(=O)c2ccccc21 (centres unmarked) [5C6 BR],Percentage Inhibition of Histamine Release,[1],78.84%
same,inhibition at 3 µM,[2]; [4],8.72%
same,inhibition at 10 µM,[2]; [7],31.6%
"O=C1CC(NC2Cc3ccccc3C2)c2ccccc21 (centres unmarked) [Compound 6C4, 3-(N-2-indanylamino)-indan-1-one]",Percentage Inhibition of Histamine Release,[1],14.92%
same,Percentage Inhibition of CaCl2 Induced Contractions,[2]; [4],17.11%
same,Percentage Inhibition of CaCl2 Induced Contractions,[2]; [5],4.63%
same,Percentage Inhibition of CaCl2 Induced Contractions,[2]; [6],2.16%
same,Percentage Inhibition of CaCl2 Induced Contractions,[2]; [7],33.46%
same,Percentage Inhibition of CaCl2 Induced Contractions,[2]; [8],8.84%
same,Percentage Inhibition of CaCl2 Induced Contractions,[2]; [9],3.02%
"Cc1ccc(S(=O)(=O)N(C2CCc3ccccc32)C2CC(=O)c3ccccc32)cc1 (centres unmarked) [Compound 5C10, N-1-Indanyl-N-3-indan-1-onyl-p-toluenesulfonamide]",inhibition at 20 µM,[1],40.8%
